The numbers were not newly measured in patent US20160243064A1, “NOVEL ORAL PHARMACEUTICAL COMPOSITIONS OF TREPROSTINIL” (Gavis Pharmaceuticals, priority 2015, published 2016), which cites them from elsewhere.

The conditions of the data set: free acid, as taught by the cited US patents.

Take `CCCCC[C@H](O)CC[C@@H]1[C@H]2Cc3cccc(OCC(=O)O)c3C[C@H]2C[C@H]1O` [treprostinil]: the oral absolute bioavailability result is given as “less than 10%”.
